Laboratory results reported in patent publication US5948816A, “4-substituted-2,7-dideoxy-7-fluoro-2,3-didehydro-sialic acid compounds” (priority 1996, dated 1999).
Structures can show the parent of a compound that is named as a salt.

Biological target: sialidase (Influenza A virus, UniProt P03468)
Assay: Influenza virus sialidase inhibition (free sialic acid released from α 2-3 sialyl-lactose, pH 5.2, 37° C., densitometry)
Format: biochemical, Influenza virus A/PR/8/34
Settings: for IC50: α 2-3 sialyl-lactose substrate, pH 5.2, 37° C., 10 minutes

sialidase, sequence (P03468 whole entry): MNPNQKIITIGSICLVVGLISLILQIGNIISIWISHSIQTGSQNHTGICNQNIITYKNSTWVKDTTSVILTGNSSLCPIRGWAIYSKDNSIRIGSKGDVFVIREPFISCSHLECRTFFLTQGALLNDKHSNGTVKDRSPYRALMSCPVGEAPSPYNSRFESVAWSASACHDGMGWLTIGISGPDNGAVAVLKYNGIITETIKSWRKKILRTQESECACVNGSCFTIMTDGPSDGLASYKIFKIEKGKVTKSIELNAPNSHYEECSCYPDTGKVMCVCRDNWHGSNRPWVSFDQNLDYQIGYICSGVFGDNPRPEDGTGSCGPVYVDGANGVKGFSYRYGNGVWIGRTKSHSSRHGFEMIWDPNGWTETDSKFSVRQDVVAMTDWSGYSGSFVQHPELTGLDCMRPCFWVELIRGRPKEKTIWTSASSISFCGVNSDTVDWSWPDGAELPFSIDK

SMILES | IC50 [µM] | sialidase inhibitory activity
CC(=O)N[C@H]1[C@H]([C@H](F)[C@H](O)CO)OC(C(=O)O)=C[C@@H]1O [7-Fluoro-2,3-didehydrosialic acid] | 2.9 | –
CC(=O)N[C@H]1[C@H]([C@H](F)[C@H](O)CO)OC(C(=O)O)=C[C@@H]1N [5-Acetamide-4-amino-2,6-anhydro-7-fluoro-3,4,5,7-tetradeoxy-D-glycero-D-galacto-non-2-enonic acid Sodium salt] | 0.5 | very potent
CC(=O)N[C@H]1[C@H]([C@H](O)[C@H](O)CO)OC(C(=O)O)=C[C@@H]1N [4-Amino-2,3-didehydrosialic acid, 4-amino-2,3-didehydrosialic acid] | 1.5 | –
